These results are taken from US8703776B2 (Cymabay Therapeutics, Inc., priority 2011, dated 2014).

Test [1] has as its target T1, human GPR131 (Homo sapiens, UniProt Q8TDU6).
T1 construct: expressed in transfected cells
T1 sequence (Q8TDU6 1-330): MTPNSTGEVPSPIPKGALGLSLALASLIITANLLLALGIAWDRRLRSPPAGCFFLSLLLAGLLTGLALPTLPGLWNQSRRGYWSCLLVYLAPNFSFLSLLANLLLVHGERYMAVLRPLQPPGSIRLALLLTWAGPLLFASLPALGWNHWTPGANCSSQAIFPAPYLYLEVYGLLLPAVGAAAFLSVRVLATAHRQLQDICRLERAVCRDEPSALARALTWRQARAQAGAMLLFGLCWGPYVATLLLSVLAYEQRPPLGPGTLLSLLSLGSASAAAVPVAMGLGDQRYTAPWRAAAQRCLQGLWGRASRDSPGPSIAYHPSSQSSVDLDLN
The test can be described thus: Stimulation of cAMP in stable cell line expressing human GPR131 (FRET cAMP kit). It counts as cell-based. Conditions: 0.5 h; 1.1 μM compound, relative to maximal stimulatory activity of lithocholic acid at 3.3 μM; 30 minutes at 37° C.; read-out: Percent Activity @ 1.1 μM (of 3.3 uM LCA) (%). An outline of the steps:
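Stable human GPR131 cells in DMEM/F12 with 1 mM IBMX treated with compound for 30 min at 37° C. Intracellular cAMP measured by competitive FRET immunoassay (665/620 nm ratio). Values given as % activity at 1.1 μM compound relative to maximal lithocholic acid stimulation at 3.3 μM.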

Test [2] has as its system Glucagon-like peptide-1 (GLP-1). The test can be described thus: Total GLP-1 secretion at end of oral glucose tolerance test. It counts as in vivo. Conditions: C57/6N mice, 100 mg/kg oral; total GLP-1 at end of OGTT vs. control animals. The procedure:
The effect of test compounds on the secretion of Glucagon-like peptide-1 (GLP-1) in C57/6N mice was determined at the end of the oral glucose tolerance test. Animals were anesthetized with pentobarbital and blood collected by heart puncture in potassium EDTA-coated microtainer tubes containing 10 μl/ml DPP-IV inhibitor and 500 KIU/ml Aprotinin. Total GLP-1 was measured using Mouse/Rat Total Glucagon-like peptide-1 assay kit (Meso Scale Discovery) and MSD SECTOR2400 Imager according to the manufacturer's instructions.
(§1) Oral glucose tolerance is expressed as a percent reduction in glucose excursion of animals receiving test compound vs. control animals. Incretin activity (i.e. incretin secretion) is expressed as an x-fold increase in GLP-1 production in animals receiving test compound vs. control animals.

The nature of test [3]: Oral glucose tolerance test in C57BL/6N mice. Conditions: 100 mg/kg oral, 3 g/kg glucose, percent reduction in glucose excursion (AUC 0-120 min) vs. control animals. It counts as in vivo. The procedure: Male mice (8-10 week old C57BL/6N, Harlan Laboratories, Inc.) were maintained on 18% Protein Rodent diet (Teklad Global Diets, Harlan Laboratories, Inc). Overnight fasted mice were randomized into groups (n=8-10) to receive the test compounds at a dose of 100 mg/kg or the vehicle (1% CMC, 2% TWEEN 80). Compounds were delivered orally via gavage. Blood glucose levels were measured by glucometer before administration of compounds and at 30 minutes post compound. The mice were then dosed orally with 3 g/kg glucose. Blood glucose measurements were taken 20, 40, 60, 90 and 120 minutes after glucose administration. Glucose levels were plotted against time and the incremental area under the curve (AUC) of the glucose excursion was determined from T=0 to T=120 min.
as §1

Test [4] has as its system Glucagon-like peptide-2 (GLP-2). The test can be described thus: Total GLP-2 secretion at end of OGTT in DIO mice. Conditions: C57BL/6J DIO mice, 100 mg/kg oral; total GLP-2, 2 hours post glucose dosing. It counts as in vivo. The procedure:
(§2) 18 week old C57BL/6J diet induced obese (DIO) male mice were maintained on a 60 kcal % fat diet. Mice fasted for 9 hours were randomized into groups (n=9-10) to receive vehicle (1% CMC, 2% TWEEN 80) or test compound at a dose of 100 mg/kg. Compounds were delivered orally via gavage, and 30 minutes later mice were dosed orally with 2 g/kg glucose.
(§3) The effect of GPR131 agonists on the secretion of total Glucagon-like peptide-2 (GLP-2) and total Peptide YY (PYY) was determined at the end of the oral glucose tolerance test (2 hours post glucose dosing). Animals were anesthetized with pentobarbital and blood collected by heart puncture in potassium EDTA-coated microtainer tubes containing 10 μl/ml DPP-IV inhibitor and 500 KIU/ml Aprotinin. Total GLP-2 was measured using Total Glucagon-like peptide-2 assay kit and Total PYY was measured using Total Peptide YY assay kit.

In test [5] the test system is Peptide YY (PYY). The test is described as follows: Total PYY secretion at end of OGTT in DIO mice. It counts as in vivo. Conditions: C57BL/6J DIO mice, 100 mg/kg oral, 2 hours post glucose dosing. The procedure:
as §2, §3

For `Cc1cnccc1CN(C)C(=O)c1cnc(SCc2c(F)ccc(F)c2F)n1-c1ccc(F)cc1` [Compound 502, 1-(4-Fluorophenyl)-N-methyl-N-((3-methylpyridin-4-yl)methyl)-2-((2,3,6-trifluorobenzyl)thio)-1H-imidazole-5-carboxamide], the activation at 1.1 µM in test [1] was determined as 100%. Moreover, the “Increase in GLP-1 (Fold)” value in test [2] turned out to be 2.2 Fold. The “Glucose Reduction (%)” value in test [3] amounted to 27.7%.

With `Cc1nn(C)cc1CN(C)C(=O)c1cnc(SCc2c(F)ccc(F)c2F)n1-c1ccc(F)cc1` [Compound 505, N-((1,3-Dimethyl-1H-pyrazol-4-yl)methyl)-1-(4-fluorophenyl)-N-methyl-2-((2,3,6-trifluorobenzyl)thio)-1H-imidazole-5-carboxamide], in test [1], the activation at 1.1 µM stood at 99%. Besides, the “Increase in GLP-1 (Fold)” value in test [2] is recorded as 1.9 Fold. In addition, the “Glucose Reduction (%)” value in test [3] was found to be 27.4%.

Take `Cc1cc(CN(C)C(=O)c2cnc(SCc3c(F)ccc(F)c3F)n2-c2ccc(F)cc2)ccn1` [Compound 577, 1-(4-Fluorophenyl)-N-methyl-N-((2-methylpyridin-4-yl)methyl)-2-((2,3,6-trifluorobenzyl)thio)-1H-imidazole-5-carboxamide]: the activation at 1.1 µM in test [1] came out at 100%. In test [2], the “Increase in GLP-1 (Fold)” value is reported as 4.1 Fold. The “Increase in GLP-2 (Fold)” value in test [4] is given as 2.5 Fold. For the same compound, the “Increase in PYY (Fold)” value in test [5] came out at 2.2 Fold. The “Glucose Reduction (%)” value in test [3] is 24.4%.

With `CCc1noc(CSc2ncc(C(=O)N(C)Cc3cn(C)nc3C)n2-c2ccc(F)cc2)n1` [Compound 630, N-((1,3-Dimethyl-1H-pyrazol-4-yl)methyl)-2-(((3-ethyl-1,2,4-oxadiazol-5-yl)methyl)thio)-1-(4-fluorophenyl)-N-methyl-1H-imidazole-5-carboxamide], the activation at 1.1 µM in test [1] was determined as 98%.

Consider `Cc1nn(C)cc1CN(C)C(=O)c1cnc(SCc2cc(C(C)C)no2)n1-c1ccc(F)cc1` [Compound 631, N-((1,3-Dimethyl-1H-pyrazol-4-yl)methyl)-1-(4-fluorophenyl)-2-(((3-isopropylisoxazol-5-yl)methyl)thio)-N-methyl-1H-imidazole-5-carboxamide], for which the activation at 1.1 µM in test [1] was determined as 97%.

For the compound `Cc1nn(C)cc1CN(C)C(=O)c1cnc(SCc2cc3ccccn3n2)n1-c1ccc(F)cc1` [Compound 632, N-((1,3-Dimethyl-1H-pyrazol-4-yl)methyl)-1-(4-fluorophenyl)-N-methyl-2-((pyrazolo[1,5-a]pyridin-2-ylmethyl)thio)-1H-imidazole-5-carboxamide], the activation at 1.1 µM in test [1] stood at 100%.

`Cc1nn(C)cc1CN(C)C(=O)c1cnc(SCc2ccn(C)n2)n1-c1ccc(F)cc1` [Compound 633, N-((1,3-Dimethyl-1H-pyrazol-4-yl)methyl)-1-(4-fluorophenyl)-N-methyl-2-(((1-methyl-1H-pyrazol-3-yl)methyl)thio)-1H-imidazole-5-carboxamide]: in test [1], the activation at 1.1 µM was found to be 93%.

For the compound `Cc1nn(C)cc1CN(C)C(=O)c1cnc(SCc2ncn(C)n2)n1-c1ccc(F)cc1` [Compound 634, N-((1,3-Dimethyl-1H-pyrazol-4-yl)methyl)-1-(4-fluorophenyl)-N-methyl-2-(((1-methyl-1H-1,2,4-triazol-3-yl)methyl)thio)-1H-imidazole-5-carboxamide], the activation at 1.1 µM in test [1] worked out at 91%.

Take `Cc1nn(C)cc1CN(C)C(=O)c1cnc(SCc2ncccn2)n1-c1ccc(F)cc1` [Compound 635, N-((1,3-Dimethyl-1H-pyrazol-4-yl)methyl)-1-(4-fluorophenyl)-N-methyl-2-((pyrimidin-2-ylmethyl)thio)-1H-imidazole-5-carboxamide]: in test [1], the activation at 1.1 µM was 98%.

Turning to `Cc1csc(CSc2ncc(C(=O)N(C)Cc3cn(C)nc3C)n2-c2ccc(F)cc2)n1` [Compound 636, N-((1,3-Dimethyl-1H-pyrazol-4-yl)methyl)-1-(4-fluorophenyl)-N-methyl-2-(((4-methylthiazol-2-yl)methyl)thio)-1H-imidazole-5-carboxamide], the activation at 1.1 µM in test [1] was 98%.

Take `CCOC(=O)CSc1ncc(C(=O)N(C)Cc2cn(C)nc2C)n1-c1ccc(F)cc1` [Compound 637, Ethyl 2-((5-(((1,3-dimethyl-1H-pyrazol-4-yl)methyl)(methyl)carbamoyl)-1-(4-fluorophenyl)-1H-imidazol-2-yl)thio)acetate]: the activation at 1.1 µM in test [1] turned out to be 94%.
